For data set [1], the system named is protein c-fos. Put plainly: Induction of the protein c-fos in various brain areas in the rat (Western blot). Format: in vivo. To be noted: sc; for activity at 30 mg/kg: rat, acute treatment, 30 mg/kg s.c. From the text: Induction of the Protein c-fos in Various Brain Areas in the Rat
Acute treatment with various antipsychotics is characterized by the induction of the protein c-fos, owing to the rapid induction off the c-fos gene in various areas of the limbic and extrapyramidal systems [M. Dragunow et al., Neuroscience, 1990, 37, 287-294; J. C. Miller, J. Neurochem., 1990, 54, 1453-1455; A. Y. Deutch et al., Mol. Cell. Neurosci., 1992, 3, 332-341; T. V. Nguyen et al., Proc. Natl. Acad. Sci. USA, 1992, 89, 4270-4274; G. S. Robertson and H. C. Fibinger, Neuroscience, 1992, 46, 315-328]. The patterns of induction of the protein depend on whether the antipsychotic is typical or atypical [G. S. Robertson et al., J. Pharmacol. Exp. Ther., 1994, 271, 1058-1066; G. S. Robertson and H. C. Fibinger, Neuroscience, 1992, 46, 315-328]. These changes in expression of c-fos can be investigated by extraction of the proteins from the brain areas of interest, and analysis of the levels by electrophoresis (Western blot).
On the technique in general: Immunoblotting shows a protein as a band on a membrane.

Data set [2] has as its system catalepsy. Put plainly: Induction of catalepsy in rats. In kind it is in vivo. Particulars: s.c. From the text:
The induction of catalepsy in rats [J. Robert et al., J. Pharmacol. Exp. Ther., 1986, 239, 124] is a parameter that is commonly employed for determining the ability of antipsychotics to induce extrapyramidal effects. The typical antipsychotics are those which, in spite of being very powerful in specific tests of antipsychotic activity, induce extrapyramidal effects, and this is detected in the catalepsy test. The best known of the typical antipsychotics is haloperidol, whereas the best known of the atypical antipsychotics is clozapine.

For data set [3], the target named is SIGMA-2 (σ2) (Homo sapiens, UniProt Q5BJF2). Put plainly: Sigma-2 receptor affinity. In kind it is binding. To be noted: SIGMA-2 (σ2) receptor.
SIGMA-2 (σ2), sequence (Q5BJF2 whole entry): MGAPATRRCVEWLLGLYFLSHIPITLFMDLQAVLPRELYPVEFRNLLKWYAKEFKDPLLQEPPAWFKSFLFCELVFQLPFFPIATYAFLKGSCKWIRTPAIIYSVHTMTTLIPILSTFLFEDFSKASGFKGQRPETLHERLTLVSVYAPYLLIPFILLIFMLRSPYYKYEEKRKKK
Data set [4] has as its target SIGMA-1 (σ1) (Homo sapiens, UniProt Q99720). Put plainly: Sigma-1 receptor affinity. In kind it is binding. Particulars: SIGMA-1 (σ1) receptor.
For data set [5], the target named is T1, 5-HT1A (Homo sapiens, UniProt P08908).
T1 sequence (P08908 1-422): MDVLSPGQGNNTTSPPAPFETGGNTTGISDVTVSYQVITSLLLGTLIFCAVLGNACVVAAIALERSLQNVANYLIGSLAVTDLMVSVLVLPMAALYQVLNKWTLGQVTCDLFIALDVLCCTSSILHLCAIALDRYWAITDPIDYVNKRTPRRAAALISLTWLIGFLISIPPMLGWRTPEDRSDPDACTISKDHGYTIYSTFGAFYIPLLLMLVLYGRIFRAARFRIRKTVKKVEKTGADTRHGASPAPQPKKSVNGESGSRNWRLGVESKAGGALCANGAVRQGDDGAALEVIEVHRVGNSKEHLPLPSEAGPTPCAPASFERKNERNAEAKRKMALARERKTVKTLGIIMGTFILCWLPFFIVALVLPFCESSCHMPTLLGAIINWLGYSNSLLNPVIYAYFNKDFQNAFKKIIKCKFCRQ
Put plainly: 5-HT1A receptor affinity. In kind it is binding.

Molecules are shown by their SMILES. Structures can show the parent of a compound that is named as a salt. Where two headings read alike, the source gives them in different places.

From patent US6355659B1, “4-(4-Chlorophenyl)-1236-tetrahydro-1(1H-124-triazol-1-yl)butty)pyrideine and salts thereof; pharmaceutical compositions and method of treating psychoses utilizing same” (Laboratorios Del Dr. Esteve, S.A., priority 1994, dated 2002) come the findings set out here.

SIGMA-1 (σ1), sequence (Q99720 whole entry): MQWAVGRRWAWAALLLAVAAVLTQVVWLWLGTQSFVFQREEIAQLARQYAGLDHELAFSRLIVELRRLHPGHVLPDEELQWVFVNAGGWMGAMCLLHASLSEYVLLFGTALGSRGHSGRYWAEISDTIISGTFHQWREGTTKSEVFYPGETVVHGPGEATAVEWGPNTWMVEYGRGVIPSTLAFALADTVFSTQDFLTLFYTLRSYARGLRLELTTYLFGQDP

For `CN1CCN(C2=Nc3cc(Cl)ccc3Nc3ccccc32)CC1` [Clozapine, clozapine], the activity at 30 mg/kg in data set [1] (read-out: Fos immunoreactivity % change relative to control, Dorsolateral groove) was 110%; in data set [1] (read-out: Fos immunoreactivity % change relative to control, Medial area of prefrontal cortex) it was 134%; in data set [1] (read-out: Fos immunoreactivity % change relative to control, Nucleus accumbens) it was 118%. For the same molecule, the “Induction of catalepsy, DE-50” value in data set [2] was “Inactive up to 80 mg/kg”.

The Ki is a measure of affinity in units of concentration, obtained from inhibition or displacement. A high value points to weaker binding. As for `Clc1ccc(C2=CCN(CCCCn3cncn3)CC2)cc1` [Example 2, 4-(4-chlorophenyl)-1,2,3,6-tetrahydro-1-[4-(1H-1,2,4-triazol-1-yl)butyl]pyridine hydrochloride], the Ki in data set [3] stood at 0.465 µM; in data set [4] it was 0.0037 µM; in data set [5], 0.6 µM. Besides, the activity at 20 mg/kg in data set [1] (read-out: Fos immunoreactivity % change relative to control, Dorsolateral groove, rat, acute treatment, 20 mg/kg s.c., % of saline group) was found to be 104%; in data set [1] (read-out: Fos immunoreactivity % change relative to control, Medial area of prefrontal cortex, rat, acute treatment, 20 mg/kg s.c., % of saline group), 134%; in data set [1] (read-out: Fos immunoreactivity % change relative to control, Nucleus accumbens, rat, acute treatment, 20 mg/kg s.c., % of saline group), 118%.

For the molecule `O=C(CCCN1CCC(O)(c2ccc(Cl)cc2)CC1)c1ccc(F)cc1` [Haloperidol, haloperidol], the “Induction of catalepsy, DE-50” value in data set [2] was “DE-50 = 0.14 mg/kg,”; in data set [2] (listed as haloperidol) it was 0.14 mg/kg.
